Assay [1] has as its target C-C chemokine receptor type 2 (Homo sapiens, UniProt P41597). The assay is described as follows: Inhibition of MCP-1 induced chemotaxis in THP-1 cells.
Assay [2] can be described thus: Inhibition of MCP-1 induced chemotaxis in THP-1 cells.

C-C chemokine receptor type 2, sequence (P41597 whole entry): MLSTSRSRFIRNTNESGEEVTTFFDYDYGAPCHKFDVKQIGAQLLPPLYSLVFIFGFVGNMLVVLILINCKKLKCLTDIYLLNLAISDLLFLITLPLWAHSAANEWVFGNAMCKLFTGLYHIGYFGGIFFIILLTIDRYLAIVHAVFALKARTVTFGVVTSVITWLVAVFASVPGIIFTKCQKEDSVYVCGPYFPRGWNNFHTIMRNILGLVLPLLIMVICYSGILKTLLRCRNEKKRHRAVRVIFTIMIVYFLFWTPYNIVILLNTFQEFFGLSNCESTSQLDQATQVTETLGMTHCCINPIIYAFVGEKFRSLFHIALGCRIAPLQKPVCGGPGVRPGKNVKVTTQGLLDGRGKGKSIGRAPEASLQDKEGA

On to `O=C(CNC(=O)c1cccc(C(F)(F)F)c1)NC[C@H]1CCCN1Cc1ccc(Cl)cc1`, for which the EC50 (as a rule, the midpoint of the concentration-response curve) in assay [1] was 810 nM. This counts as sub-micromolar.

For the compound `O=C(CNC(=O)c1cccc(C(F)(F)F)c1)NCC1CCN(Cc2ccc(Cl)cc2)CC1` [N-({[1-(4-Chloro-benzyl)-piperidin-4-ylmethyl]-carbamoyl}-methyl)-3-trifluoromethyl-benzamide], the EC50 in assay [2] worked out at 40 nM.

`O=C(CNC(=O)c1cccc(C(F)(F)F)c1)N[C@@H]1CCN(Cc2ccc(Cl)cc2)C1` [(R)-N-(2-(1-(4-chlorobenzyl)pyrrolidin-3-ylamino)-2-oxoethyl)-3-(trifluoromethyl)benzamide]: in assay [2], the EC50 amounted to 20 nM.

Compound `O=C(CNC(=O)c1cccc(C(F)(F)F)c1)N[C@H]1CCN(Cc2ccc(Cl)cc2)C1` registered an EC50 in assay [2] of 360 nM. Compared with the last compound, the EC50 is about 18-fold higher.

As to `O=C(CNC(=O)c1cccc(C(F)(F)F)c1)NC1CCCN(Cc2ccc(Cl)cc2)C1` (stereo not given) [N-{[1-(4-Chloro-benzyl)-piperidin-3-ylcarbamoyl]-methyl}-3-trifluoromethyl-benzamide], the EC50 in assay [2] stood at 610 nM.

The values are drawn from BindingDB's records for doi:10.1016/j.bmcl.2004.08.009 (Deltagen Research Laboratories, 2004).
